{
  "source": "paper PMC9750798",
  "about": "“A metabotropic glutamate receptor affects the growth and development of Schistosoma japonicum” (Frontiers in Microbiology, 2022)",
  "biological_target": "T1, SjGRM7 (Schistosoma japonicum, UniProt A0A4Z2D6G5)",
  "T1 construct": "gene EWB00_004136; S. mansoni homologue is Smp_128940",
  "T1 sequence (A0A4Z2D6G5 24-1036)": "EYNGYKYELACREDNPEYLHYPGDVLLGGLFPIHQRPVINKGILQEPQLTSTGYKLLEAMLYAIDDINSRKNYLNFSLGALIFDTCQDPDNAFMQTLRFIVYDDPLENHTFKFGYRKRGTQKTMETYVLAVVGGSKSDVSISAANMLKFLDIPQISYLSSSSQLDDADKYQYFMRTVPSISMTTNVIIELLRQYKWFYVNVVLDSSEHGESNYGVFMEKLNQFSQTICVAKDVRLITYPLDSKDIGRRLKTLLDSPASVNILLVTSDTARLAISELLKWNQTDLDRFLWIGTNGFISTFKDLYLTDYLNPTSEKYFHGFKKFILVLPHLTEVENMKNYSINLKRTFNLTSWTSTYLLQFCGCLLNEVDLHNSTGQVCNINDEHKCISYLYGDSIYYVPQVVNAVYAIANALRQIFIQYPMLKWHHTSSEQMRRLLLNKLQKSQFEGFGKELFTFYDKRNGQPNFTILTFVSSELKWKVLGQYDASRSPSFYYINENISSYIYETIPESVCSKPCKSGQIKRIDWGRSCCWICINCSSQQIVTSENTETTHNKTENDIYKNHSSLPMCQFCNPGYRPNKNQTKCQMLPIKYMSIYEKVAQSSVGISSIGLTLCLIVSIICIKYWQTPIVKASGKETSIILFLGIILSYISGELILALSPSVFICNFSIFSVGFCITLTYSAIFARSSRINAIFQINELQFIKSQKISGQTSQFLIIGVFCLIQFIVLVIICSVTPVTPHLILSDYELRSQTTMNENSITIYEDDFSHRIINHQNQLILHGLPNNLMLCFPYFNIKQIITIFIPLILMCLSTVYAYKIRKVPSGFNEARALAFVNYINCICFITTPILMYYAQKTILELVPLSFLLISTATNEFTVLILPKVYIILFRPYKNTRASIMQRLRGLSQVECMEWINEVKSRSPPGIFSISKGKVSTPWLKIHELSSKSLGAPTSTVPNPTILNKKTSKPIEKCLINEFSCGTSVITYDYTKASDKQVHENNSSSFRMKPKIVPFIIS",
  "assay": "Fluo-4 calcium mobilization in transfected HEK293T cells",
  "format": "cell-based",
  "details": "agonist; co-expressed G-alpha16; dose series",
  "data": [
    {"smiles": "N[C@@H](CCC(=O)O)C(=O)O", "note": "[L-glutamate]", "values": [
      {"measurement": "Fluo-4 calcium mobilization in transfected HEK293T cells", "value": "SjGRM and SjGRM7 responded only to L-glutamate"}
    ]}
  ]
}
